Test results from patent US20030059338A1, “Methods for sterilizing biological materials using flavonoid/flavonol stabilizers” (priority 2001, published 2003).

Legend:
thrombin = assay: Thrombin clotting activity (chromagenic) of lyophilized thrombin after gamma irradiation with stabilizer (Example 3); assay type: biochemical; settings: lyophilized thrombin + 10% BSA, 48.5-51.2 kGy at 1.846-1.949 kGy/hr, 4° C.; epicatechin 200 mM, purpurogallin 1M, biacalein 50 mM
Description: Samples of thrombin (100 NIH units, 1 ml), alone or in the presence of epicatechin (200 mM) or purpurogallin (1M, Aldrich) or biacalein (50 mM; Aldrich), and 10% bovine serum albumin, were prepared and lyophilized. Lyophilized samples were gamma irradiated to 48.5-51.2 kGy at a dose rate of 1.846-1.949 kGy/hr at 4° C. All samples were then assayed for clotting activity by conventional chromagenic methodology.

[1] = system: anti-insulin monoclonal immunoglobulin; assay: ELISA activity of freeze-dried anti-insulin monoclonal immunoglobulin after gamma irradiation with stabilizer (Example 1); assay type: binding; settings: freeze-dried anti-insulin mAb + 1% BSA, irradiated to 45 kGy at 1.83 kGy/hr, 4° C.; diosmin 39.3 mM or silymarin 246 mM
Description: Samples were prepared by combining anti-insulin monoclonal antibody ([…] of 2 mg/ml solution) and either diosmin (39.3 mM; Sigma cat# D3525 lot 125H0831) or silymarin (246 mM; Aldrich cat #24592-4) in 3 ml glass vials with 13 mm stoppers. Samples were freeze-dried for approximately 64 hours and stoppered under vacuum and sealed with an aluminum, crimped seal. Samples were irradiated at a dose rate of 1.83 kGy/hr to a total dose of 45 kGy at 4° C. Monoclonal immunoglobulin activity was determined by a standard ELISA protocol. Maxisorp plates were coated with human recombinant insulin at […] overnight at 4° C. The plate was blocked with […] of blocking buffer (PBS, pH 7.4, 2% BSA) for two hours at 37° C. and then washed six times with wash buffer (TBS, pH 7, 0.05% TWEEN 20). Samples were re-suspended in […] of high purity water (100 ng/ml), diluted to 5 Fg/ml in a 300 Fl U-bottomed plate coated for either overnight or two hours with blocking buffer. Serial 3-fold dilutions were performed, with a final concentration of […]. Plates were incubated for one hour at 37° C. with agitation and then washed six times with a wash buffer. Phosphatase-labelled goat anti-mouse IgG (H+L) was diluted to 50 ng/ml in binding buffer and […] was added to each well. […] The plate was read on a Multiskan MCC/340 at 405 nm with the background absorbance at 620 nm subtracted.

| SMILES | thrombin activity retained following gamma irradiation (thrombin) | recovery of activity [1] [%] |
| --- | --- | --- |
| O=c1cc(-c2ccccc2)oc2cc(O)c(O)c(O)c12 [biacalein] | about 57% |  |
| O=c1c(O)cccc2cc(O)c(O)c(O)c12 [purpurogallin] | over 90% |  |
| COc1ccc(-c2cc(=O)c3c(O)cc(O[C@@H]4O[C@H](CO[C@@H]5O[C@@H](C)[C@H](O)[C@@H](O)[C@H]5O)[C@@H](O)[C@H](O)[C@H]4O)cc3o2)cc1O [diosmin] |  | ~62 |
